# Measured values taken from patent publication US9290457B2, “Substituted dihydropyrimidinones and their use as inhibitors of neutrophil elastase activity” (Boehringer Ingelheim International GmbH, priority 2014, dated 2016).
# Tests used:
# neutrophil elastase [1] = biological target: T1, neutrophil elastase (Homo sapiens (Human), UniProt P08246); experiment: Human Neutrophil Elastase Assay; assay type: biochemical; details: substrate MeOSuc-Ala-Ala-Pro-Val-AMC
# Target sequence in this assay (P08246 30-247): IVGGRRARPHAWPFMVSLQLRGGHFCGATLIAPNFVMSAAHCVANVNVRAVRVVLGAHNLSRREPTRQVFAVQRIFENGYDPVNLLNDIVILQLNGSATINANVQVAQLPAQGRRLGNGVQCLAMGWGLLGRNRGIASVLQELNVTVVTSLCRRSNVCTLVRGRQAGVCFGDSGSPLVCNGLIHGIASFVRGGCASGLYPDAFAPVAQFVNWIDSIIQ
# neutrophil elastase [2] = biological target: T1, neutrophil elastase; experiment: Neutrophil elastase inhibitory activity in human plasma; assay type: biochemical; details: zymosan-stimulated human plasma, substrate MeOSuc-Ala-Ala-Pro-Val-AMC
# Protocol: Assay for the Determination of Neutrophil Elastase Inhibitory Activity in Human Plasma
# Citrated blood from human healthy donors is mixed with zymosan suspension and incubated at room temperature. This leads to the stimulation of neutrophils and the release of neutrophil elastase into the plasma. The stimulated blood is centrifuged to generate the neutrophil elastase enriched plasma.
# Preparation of Zymosan Working Solution:
# • A single 45 ml blood sample is taken into a 50 ml tube containing citrate (3.13%, 5 mL) and the tube is gently inverted 4 times. • Immediately after blood sampling, zymosan working solution (5 mL) is added. • After the addition of zymosan working solution, the tubes are capped, mixed gently and incubated at 22° C. for 15 min on a shaker at 20 rpm. • Make 10 ml aliquots after the incubation time. • Centrifuge the 15 ml tubes at 800 g for 15 min at 4° C. in a Jouan centrifuge. • Harvest the plasma and make 1-5 ml aliquots. • Store the plasma at −80° C.
# Various concentrations of the neutrophil elastase inhibitor are incubated with plasma. Subsequently, the enzyme activity is measured using the fluorogenic substrate MeOSuc-Ala-Ala-Pro-Val-AMC (Bachem Cat. No. I-1270, substrate concentration: 250 μM, pH 7.5, 25 mM TRIS buffer, 250 mM NaCl) in analogous fashion as described for the human neutrophil assay. A dose response curve is generated to calculate the EC50 of the inhibitor. The analysis of the data is performed by the calculation of the percentage of fluorescence in the presence of the test compound compared to the fluorescence of the vehicle control after subtracting the background fluorescence: An inhibitor of the neutrophil elastase enzyme will give values between 100% control (no inhibition) and 0% control (complete inhibition).
# Target sequence in this assay (P08246 30-267): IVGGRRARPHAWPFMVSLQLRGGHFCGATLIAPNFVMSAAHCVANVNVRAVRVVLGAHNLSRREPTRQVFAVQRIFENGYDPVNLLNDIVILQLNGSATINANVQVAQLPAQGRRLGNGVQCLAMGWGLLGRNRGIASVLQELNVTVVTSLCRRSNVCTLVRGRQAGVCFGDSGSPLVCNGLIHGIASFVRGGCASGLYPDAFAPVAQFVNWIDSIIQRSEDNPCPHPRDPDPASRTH
# [3] = Metabolic stability with human liver microsomes; assay type: in vitro ADME; details: pH 7.6; pooled human liver microsomes, 1 μM compound, 37° C.; read-out: t1/2 INVITRO
# Protocol: Assay for the Determination of Metabolic Stability with Human Liver Microsomes
# The metabolic degradation of the test compound is assayed at 37° C. with pooled human liver microsomes. The final incubation volume of 100 μl per time point contains TRIS buffer pH 7.6 (0.1 M), magnesium chloride (5 mM), microsomal protein (1 mg/ml) and the test compound at a final concentration of 1 μM. Following a short preincubation period at 37° C., the reactions are initiated by addition of beta-nicotinamide adenine dinucleotide phosphate, reduced form (NADPH, 1 mM) and terminated by transferring an aliquot into acetonitrile after different time points. Additionally, the NADPH-independent degradation is monitored in incubations without NADPH, terminated at the last time point. The [%] remaining test compound after NADPH independent incubation is reflected by the parameter c(control) (metabolic stability). The quenched incubations are pelleted by centrifugation (10,000 g, 5 min) An aliquot of the supernatant is assayed by LC-MS/MS for the amount of parent compound.
# The half-life (t1/2 INVITRO) is determined by the slope of the semilogarithmic plot of the concentration-time profile. The intrinsic clearance (CL_[…]) is calculated by considering the amount of protein in the incubation: CL_[…][μl/min/mg protein]=(ln 2/(half-life[min]*protein content[mg/ml]))*1,000.
# The half-life (t1/2 INVITRO) values of selected compounds in the metabolic stability assay human liver microsomes described above are listed in Table 3.
# [4] = Drug transport across human Caco-2 cells; assay type: in vitro ADME; details: human, Caco-2, pH 7.2, 37° C.
# Text: Assay for Determination of Drug Transport Across Human Caco-2 Cells
# The assay provides information on the potential of a compound to pass the cell membrane, on the extent of oral absorption as well as on whether the compound is actively transported by uptake and/or efflux transporters. For the measurement of permeability across polarized, confluent human cancer colon carcinoma cells 2 (Caco-2) cell monolayers grown on permeable filter supports are used as the in vitro absorption model.
# Apparent permeability coefficients (PE) of the compounds across the Caco-2 monolayers are measured (pH 7.2, 37° C.) in apical-to-basal (AB) (absorptive) and basal-to-apical (BA) (secretory) transport direction. AB permeability (PEAB) represents drug absorption from the intestine into the blood and BA permeability (PEBA) drug secretion from the blood back into the intestine via both passive permeability as well as active transport mechanisms mediated by efflux and uptake transporters that are expressed on the Caco-2 cells. The compounds are assigned to permeability/absorption classes by comparison of the AB permeabilities with the AB permeabilities of reference compounds with known in vitro permeability and oral absorption in the human. Identical or similar permeabilities in both transport directions indicate passive permeation, vectorial permeability points to additional active transport mechanisms. […] Active transport is concentration-dependently saturable.
# Caco-2 cells (1-2*10^5 cells/cm^2 area) are seeded on filter inserts (Costar transwell polycarbonate or PET filters, 0.4 μm pore size) and cultured (DMEM) for 10 to 25 days. Compounds are dissolved in appropriate solvent (like DMSO, 1-20 mM stock solutions). Stock solutions are diluted with HTP-4 buffer (128.13 mM NaCl, 5.36 mM KCl, 1 mM MgSO4, 1.8 mM CaCl2, 4.17 mM NaHCO3, 1.19 mM Na2HPO4x7H2O, 0.41 mM NaH2PO4xH2O, 15 mM HEPES, 20 mM glucose, pH 7.2) to prepare the transport solutions (typically 10 μM compound, final DMSO<=0.5%). The transport solution (TL) is applied to the apical or basolateral donor side for measuring A-B or B-A permeability (3 filter replicates), respectively. The receiver side contains HTP-4 buffer supplemented with 2% BSA. Samples are collected at the start and end of experiment from the donor and at various time intervals for up to 2 hours also from the receiver side for concentration measurement by LC-MS/MS or scintillation counting. Sampled receiver volumes are replaced with fresh receiver solution.
# The apparent permeability coefficients (PEAB and PEBA) of selected compounds in the Caco-2 drug transport assay described above are listed in Table 5.
# Aqueous solubility = assay type: physicochemical; details: McIlvaine buffer with 2.5% DMSO, aqueous buffer, kinetic from dmso stock, McIlvaine buffer pH 6.8, 2.5% DMSO
# Protocol: Assay for Determination of Aqueous Solubility
# Starting from a 10 mM DMSO stock solution, aliquots are diluted with acetonitrile/water (1/1) and McIlvaine buffer pH 6.8, respectively. After 24 h of shaking, the solutions or suspensions are filtered and analyzed by LC-UV. The amount dissolved in buffer is compared to the amount dissolved in the acetonitrile/water (1/1) solution. Solubility is measured from 0.001 to 0.125 mg/ml at a DMSO concentration of 2.5%. If more than 90% of the compound is dissolved in buffer, the value is marked with “>”.
SMILES,IC50 (neutrophil elastase [1]) [nM],other results
"CC(=O)C1=C(C)N(c2cccc(C(F)(F)F)c2)C(=O)N(C)C1c1ccc(C#N)cc1-c1nnc(C)o1 (stereo not shown) [Example 8, 4-[5-Acetyl-3,6-dimethyl-2-oxo-1-(3-trifluoromethyl-phenyl)-1,2,3,4-tetrahydro-pyrimidin-4-yl]-3-(5-methyl-[1,3,4]oxadiazol-2-yl)-benzonitrile]",< 1,"EC50 (neutrophil elastase [2]): 6 nM; half-life at 1 μM [3]: > 2.17 h; Papp A→B at 10 μM ([4]; apical-to-basal, read-out: PEAB): 77 ×10⁻⁶ cm/s; Papp B→A at 10 μM ([4]; basal-to-apical, read-out: PEBA): 63 ×10⁻⁶ cm/s; solubility at 24 h (Aqueous solubility): 30 µg/mL"
CCOC(=O)C1=C(C)N(c2cccc(C(F)(F)F)c2)C(=O)N(C)C1c1ccc(C#N)cc1C(=O)N1CCC1 (stereo not shown) [Example 3.9],3,
CC(=O)C1=C(C)N(c2cccc(C(F)(F)F)c2)C(=O)N(C)C1c1ccc(C#N)cc1C(=O)N1CC[C@H](N)C1 (stereo partly shown) [Example 2.11],< 1,
CC(=O)C1=C(C)N(c2cccc(C(F)(F)F)c2)C(=O)N(C)C1c1ccc(C#N)cc1C(=O)NCc1ccon1 (stereo not shown) [Example 1.41],< 1,
CC(=O)C1=C(C)N(c2cccc(C(F)(F)F)c2)C(=O)N(C)C1c1ccc(C#N)cc1-c1ccc(=O)n(C)c1 (stereo not shown) [Example 5.11],< 1,
CCOC(=O)C1=C(C)N(c2cccc(C(F)(F)F)c2)C(=O)N(C)C1c1ccc(C#N)cc1-c1ccn(C)n1 (stereo not shown) [Example 14.7],2.4,
CCOC(=O)C1=C(C)N(c2cccc(C(F)(F)F)c2)C(=O)N(C)C1c1ccc(C#N)cc1-c1ccn(C)c(=O)c1 (stereo not shown) [Example 14.9],< 1,
CCOC(=O)C1=C(C)N(c2cccc(C(F)(F)F)c2)C(=O)N(C)C1c1ccc(C#N)cc1C(=O)N1CCN2CCOCC2C1 (stereo not shown) [Example 3.46],3.8,
CC(=O)C1=C(C)N(c2cccc(C(F)(F)F)c2)C(=O)N(C)C1c1ccc(C#N)cc1C(=O)NC12CC(C1)C2 (stereo not shown) [Example 1.18],1,
CC(=O)C1=C(C)N(c2cccc(C(F)(F)F)c2)C(=O)N(C)C1c1ccc(C#N)cc1-c1ccc2occc2c1 (stereo not shown) [Example 5.13],22.6,
CC(=O)C1=C(C)N(c2cccc(C(F)(F)F)c2)C(=O)N(C)C1c1ccc(C#N)cc1C(=O)NC1CCN(C(C)C)C1 (stereo not shown) [Example 1.83],1.2,
CCOC(=O)C1=C(C)N(c2cccc(C(F)(F)F)c2)C(=O)N(C)C1c1ccc(C#N)cc1C(=O)NC1CCNCC1 (stereo not shown) [Example 4.2],1.7,
CCOC(=O)C1=C(C)N(c2cccc(C(F)(F)F)c2)C(=O)N(C)C1c1ccc(C#N)cc1C(=O)NCCCOC (stereo not shown) [Example 3.25],1.2,
CC(=O)C1=C(C)N(c2cccc(C(F)(F)F)c2)C(=O)N(C)C1c1ccc(C#N)cc1C(=O)N1CCOCC1 (stereo not shown) [Example 1.3],2.25,
